Columns and labels:
[1] = system: MOLM-13 cells; experiment: Proliferation assay MOLM-13; assay type: cell-based; settings: Homo sapiens, 72-hour exposure, Cell Titre-Glo, read-out: Inhibition of MOLM-13 cell proliferation IC50
Protocol: (§1) Cultivated tumour cells (HeLa, human cervical tumour cells, ATCC CCL-2; NCI-H460, human non-small cell lung carcinoma cells, ATCC HTB-177; A2780, human ovarian carcinoma cells, ECACC #93112519; DU 145, hormone-independent human prostate carcinoma cells, ATCC HTB-81; HeLa-MaTu-ADR, multidrug-resistant human cervical carcinoma cells, EPO-GmbH Berlin; Caco-2, human colorectal carcinoma cells, ATCC HTB-37; B16F10, mouse melanoma cells, ATCC CRL-6475) were plated at a density of 5,000 cells/well (DU145, HeLa-MaTu-ADR), 3,000 cells/well (NCI-H460, HeLa), 2,500 cells/well (A2780), 1,500 cells/well (Caco-2), or 1,000 cells/well (B16F10) in a 96-well multititer plate in 200 μL of their respective growth medium supplemented 10% fetal calf serum. […] Cell proliferation was determined by staining the cells with crystal violet: the cells were fixed by adding 20 μl/measuring point of an 11% glutaric aldehyde solution for 15 minutes at room temperature. […] The extinction was determined by photometry at a wavelength of 595 nm. The change of cell number, in percent, was calculated by normalization of the measured values to the extinction values of the zero-point plate (=0%) and the extinction of the untreated (0 μm) cells (=100%). […] Cell viability was assessed after 72-hour exposure with the Cell Titre-Glo Luminescent Cell Viability Assay (Promega). […]

[2] = system: A2780 cells; experiment: Proliferation assay A2780; assay type: cell-based; settings: Homo sapiens, A2780, 96 h; 4 days, crystal violet; read-out: Inhibition of A2780 cell proliferation IC50
Protocol: as §1

IC50 [1]	IC50 [2]	Compound
4 nM		CS(=N)(=O)Cc1cc2cc(c1)OCCCCOc1cc(F)ccc1-c1nc(ncc1F)N2 (racemic) [Example 1, (rac)-16,20-Difluoro-9-[(S-methylsulfonimidoyl)methyl]-2,3,4,5-tetrahydro-12H-13,17-(azeno)-11,7-(metheno)-1,6,12,14-benzodioxadiazacyclononadecine]
2 nM		CS(=N)(=O)Cc1cc2nc(c1)OCCCOc1cc(F)ccc1-c1cc(ncc1F)N2 (racemic) [Example 5, (rac)-15,19-Difluoro-8-[(S-methylsulfonimidoyl)methyl]-3,4-dihydro-2H,11H-10,6-(azeno)-12,16-(metheno)-1,5,11,13-benzodioxadiazacyclooctadecine]
	115 nM	CSCc1cc2nc(c1)OCCCCOc1cc(F)ccc1-c1cc(ncc1F)N2 [Example 12, 16,20-Difluoro-9-[(methylsulfanyl)methyl]-2,3,4,5-tetrahydro-12H-11,7-(azeno)-13,17-(metheno)-1,6,12,14-benzodioxadiazacyclononadecine]
